The values below come from ChEMBL document CHEMBL1130488, “1,4-Diaryl-2-oxo-1,2-dihydro-quinoline-3-carboxylic acids as endothelin receptor antagonists” (Bioorg Med Chem Lett, 1997).

Bounds are passed on as bounds.

The first assay addresses T1, Endothelin-1 receptor (Rattus norvegicus, UniProt P26684).
T1 sequence (P26684 whole entry): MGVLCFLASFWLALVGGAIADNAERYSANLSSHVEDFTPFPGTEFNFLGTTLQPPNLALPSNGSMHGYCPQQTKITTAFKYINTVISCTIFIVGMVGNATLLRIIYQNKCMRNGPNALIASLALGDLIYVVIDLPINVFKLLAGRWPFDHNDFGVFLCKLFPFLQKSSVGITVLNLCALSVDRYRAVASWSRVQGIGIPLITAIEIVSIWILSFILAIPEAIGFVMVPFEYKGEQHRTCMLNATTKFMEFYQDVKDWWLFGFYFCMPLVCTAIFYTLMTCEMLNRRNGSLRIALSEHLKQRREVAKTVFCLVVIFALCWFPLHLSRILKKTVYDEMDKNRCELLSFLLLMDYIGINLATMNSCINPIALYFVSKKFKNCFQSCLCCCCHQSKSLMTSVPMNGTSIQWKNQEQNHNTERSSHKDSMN
Description: Inhibition of [125I]ET1 binding to rat aorta membranes(ETA). The assay is classed as cell membranes, Membrane.
Settings: not given
In the case of `CCOc1ccc2c(c1)c(-c1ccc(OC)cc1)c(C(=O)O)c(=O)n2Cc1ccccc1OC`, the IC50 (as a rule, the midpoint of a concentration-inhibition curve) is 1.3 µM. Same read-out and setting: under `COc1ccc(Cn2c(=O)c(C(=O)O)c(-c3ccc4c(c3)OCO4)c3ccccc32)cc1` stands 2.4 µM; under `O=C(O)c1c(-c2ccc3c(c2)OCO3)c2ccccc2n(Cc2ccccc2)c1=O`, more than 10 µM; under `CCOc1ccc2c(c1)c(-c1ccc3c(c1)OCO3)c(C(=O)O)c(=O)n2Cc1ccccc1OC`, 0.38 µM.

In turn, `CCOc1ccc2c(c1)c(-c1ccc3c(c1)OCO3)c(C(=O)O)n2Cc1ccc(OC)cc1` came in with an IC50 of 130 µM. In turn, `CCOc1ccc2c(c1)c(-c1ccc(OC)cc1OC)c(C(=O)O)c(=O)n2Cc1ccccc1OC` yielded a concentration for half-maximal inhibition (IC50) of 1.2 µM. In the case of `COc1ccccc1Cn1c(=O)c(C(=O)O)c(-c2ccc3c(c2)OCO3)c2ccccc21`, the IC50 came out at 2 µM. Compound `O=C(O)c1c(-c2ccc3c(c2)OCO3)c2ccccc2n(Cc2ccc3c(c2)OCO3)c1=O` yielded an IC50 of 2.6 µM. As to `CCc1ccc2c(c1)c(-c1ccc3c(c1)OCO3)c(C(=O)O)c(=O)n2Cc1ccccc1OC`, the concentration for half-maximal inhibition (IC50) was 1.5 µM. Regarding `COc1ccccc1Cn1c(=O)c(C(=O)O)c(-c2ccc3c(c2)OCO3)c2c(OC)c(OC)ccc21`, the IC50 was determined as 3.3 µM. The compound `COc1ccccc1Cn1c(=O)c(CC(=O)O)c(-c2ccc3c(c2)OCO3)c2ccccc21` showed a concentration for half-maximal inhibition (IC50) of more than 10 µM.

Compound `COc1cccc(Cn2c(=O)c(C(=O)O)c(-c3ccc4c(c3)OCO4)c3ccccc32)c1` returned an IC50 of more than 10 µM. `CCOc1ccc2c(c1)c(-c1ccc(OC)cc1)c(C(=O)O)c(=O)n2Cc1cc(OC)ccc1OC`: the half-maximal inhibitory concentration (IC50) was found to be 0.26 µM.

Another assay addresses T1, Endothelin-1 receptor. Description: Functional antagonism against ETA receptor in rat aortic rings expressed as pA2 value. The settings on record: read-out: pA2 (converted).
As for `CCOc1ccc2c(c1)c(-c1ccc3c(c1)OCO3)c(C(=O)O)n2Cc1ccc(OC)cc1`, the Kb is 0.398 µM. As to `CCOc1ccc2c(c1)c(-c1ccc(OC)cc1)c(C(=O)O)c(=O)n2Cc1cc(OC)ccc1OC`, the Kb is 6.31 µM.
